Series [1] deals with melanoma cell line MelJuso. In words: Viability assay (ATP content, CellTiter-Glo), MelJuso. The series is classed as cell-based. Particulars: Homo sapiens, MEL-JUSO, 24 h. Here is the method:
(§1) In the following experiment the possible therapeutic window for NO-ASA derivatives was investigated. […] The melanoma cell line MelJuso, the colon carcinoma cell line SW480, the small cell lung cancer cell line HCC44, the ovarian adenocarcinoma cell line COLO704 and the acute myeloid leukemia cell line SH2 were treated with concentrations of p-NO-ASA and B9, B12 and B13 in a range between 0.01 μM and 100 μM for 24 h, followed by addition of luminogenic CellTiter-Glo® reagent.
(§2) Table accompanying Example 5. Overview of the EC50 values of cell survival analyzed by ATP content and Annexin V/PI assay. n.t.; not tested
A general note: In ATP-based viability assays light output follows the ATP content of the culture.

Series [2] relates to JVM3 cells (human chronic B cell leukemia cell line). Nature of the series: CLL xenograft mouse model (JVM3 cells subcutaneously in SCID beige mice). The series is classed as in vivo. Here is the method: Treatment with B9 leads to significant tumor inhibition compared to vehicle control (p=0.015) after nine days with increasing significance up to day 19 of treatment (p=0.0003). IRmax value of 65% for B9 over vehicle control was determined. *=p≤0.05, **=p≤0.01, ***=p≤0.001 calculated by unpaired two-tailed students test, †=death, IR=Inhibition ratio.
Due to its favorable characteristics B9 was chosen for in vivo testing in a CLL xenograft mouse model. JVM3 cells (human chronic B cell leukemia cell line) were injected subcuntaneously into the flank of immunincompetent mice. The developing solid tumor was treated with intraperitoneal injections of 8 mg/kg of compound B9 or sesame oil (vehicle) every other day (see FIG. 4).
1*10^7 JVM3 cells were injected subcutaneously in SCID beige mice (CB17.Cg-Prkdc^scidLyst^bg-J/Crl). Tumors were measured every other day by caliper and the tumor volume was calculated V=(Length*(0.5*Width^2)). Mice carrying a tumor of more than 50 mm^3 were treated every other day with either sesame oil (vehicle control) or with 8 mg/kg B9 solved in sesame oil via intraperitoneal injections. The abortion criteria given by the GV-SOLAS for tumor bearing mice were applied. p-values were calculated using unpaired two-tailed Students test.

Series [3] has as its system acute myeloid leukemia cell line SH2. Nature of the series: Viability assay (ATP content, CellTiter-Glo), SH2. The class given is cell-based. Particulars: 24 h. Here is the method: as §1, §2
The subject of series [4] is EHEB. In words: CellTiter-Glo ATP assay, EHEB cell line. The class given is cell-based. Conditions: 24 h, 0.01-1000 μM. On the procedure: (§3) Several cell lines (n=5) were treated with different concentrations of p-NO-ASA, B9, B12 and B13 ranging between 0.01 μM and 1000 μM for 24 hours followed by addition of luminogenic CellTiter-Glo®-reagent. […] For each cell line the order of used compound in the bar chart is from left to right as following: p-NO-ASA, B9, B12, B13.
(§4) Treatment success in CLL may depend on cytogenetic and molecular parameters as for instance del13q or TP53 gene disruption. Therefore, the NO-ASA derivatives were examined on (chronic) B cell lymphoma cell lines with different geno- and phenotypes (JVM3, EHEB, U2932, MEC-1, GRANTA-519). The cells were treated with concentrations between 0.01 and 1000 μM for 24 h followed by the addition of luminogenic CellTiter-Glo® reagent.

For series [5], the system named is acute myeloid leukemia cell line SH2. Nature of the series: Annexin V/PI assay, SH2. The series is classed as cell-based. Conditions: 24 h.
Series [6] relates to melanoma cell line MelJuso. In words: Annexin V/PI assay, MelJuso. The series is classed as cell-based. Conditions: Homo sapiens, MEL-JUSO, 24 h.
The subject of series [7] is colon carcinoma cell line SW480. In words: cells. The class given is cell-based. Conditions: Homo sapiens, SW480, 24 h, read-out: Viability assay EC50, SW480. On the procedure:
The cell lines (n=5) were treated with different concentrations of p-NO-ASA, B9, B12 and B13 ranging between 0.01 μM and 100 μM for 24 hours followed by addition of luminogenic CellTiter-Glo®-reagent (see Example 5).
as §1, §2

Series [8] has as its system MEC-1. In words: CellTiter-Glo ATP assay, MEC-1 cell line. The class given is cell-based. Conditions: Homo sapiens, MEC1; 24 h, CellTiter-Glo. On the procedure:
as §3, §4

The test system of series [9] is Primary CLL cells. Nature of the series: AnnexinV/PI assay on primary CLL cells. The class given is cell-based, human. Here is the method:
PBMCs or CLL cells (5*10^6 cells/ml) were incubated for 24 h with different compounds at concentrations from 0.01 to 100 μM. Cell survival was normalized to DMSO control [vehicle]. See Example 1.
Primary CLL or peripheral blood mononuclear cells of healthy donors (5*10^6/ml) were incubated for 24 h with different compounds according to the invention and NO-ASA as a control. The compounds were added in different concentrations, in particular in concentrations from 0.01-100 μM. Cell survival was assessed by AnnexinV/PI assay (Kit commercially available, e.g. by Biotium Inc, USA; or Phoenix Flow Systems, US), the results were normalized to DMSO control [vehicle] and dose response curves were calculated using a non-linear regression model.

Series [10] deals with JVM-3. In words: CellTiter-Glo ATP assay, JVM-3 cell line. Conditions: 24 h, 0.01-1000 μM. The series is classed as cell-based, human. On the procedure:
as §3, §4

Series [11] concerns ovarian adenocarcinoma cell line COLO704. In words: Annexin V/PI assay, COLO704. The class given is cell-based. Conditions: COLO 704, 24 h.
The test system of series [12] is small cell lung cancer cell line HCC44. Nature of the series: Annexin V/PI assay, HCC44. The class given is cell-based. Particulars: Homo sapiens, HCC44, 24 h.
[13] abbreviates: mice, 8 mg/kg i.p. every other day.

“And” between values parts separate entries of the source, which are not always exact repeats. Equal entries are not always repeated.

`O=C(Oc1ccc(CO[N+](=O)[O-])cc1)c1ccccc1` [B9, 4-((nitrooxy)methyl)phenyl benzoate]: the EC50 in series [1] was 890 nM; in series [3] it was 160 nM; in series [5], 1930 nM; in [6] it was 8.76 µM; in series [7], 31.8 µM; in series [8], 6.62 µM. In addition, the EC50 in series [9] (Homo sapiens, CLL cell, 24 h incubation, 0.01-100 μM, 5*10^6 cells/ml, normalized to DMSO control, read-out: AnnexinV/PI assay EC50 Primary CLL) is 1850 nM; in series [11], 7.25 µM; in series [12], 6.76 µM. Also, the “Inhibition ratio of tumor growth (IR, IRmax) over vehicle control” value in series [2] (8 mg/kg i.p. every other day in sesame oil, highest at day 17) is 65.33% and 65%. In addition, in [2] (8 mg/kg i.p. every other day vs sesame oil vehicle), the tumor growth result is recorded as “significant reduction in tumor growth”. The tumor volume in [2] (Day 9 of treatment, 8 mg/kg i.p. every other day) turned out to be 82.97 mm^3. Also, the bodyweight entry in [2] (setting [13]) is given as “A reduction of bodyweight was not observed”. Further, in [2] (setting [13]), the severe side effects result was “Severe side effects were not observed”. Further, in [2] (mice, 8 mg/kg i.p. every other day, drinking and feeding normally), the mobility after treatment result is “slightly reduced mobility for 15 to 30 min”. The “ATP content in EHEB” value in series [4] was “reduced ATP content”. Moreover, the “selectivity for CLL cells compared to PBMCs” value in series [9] (FIG. 3, sensitivity of CLL cells vs PBMCs, 24 h) was “selective for CLL cells”. Besides, in [10], the “ATP content in JVM-3” value was “reduced ATP content”.

Values taken from patent US10793509B2, “Compounds useful in the treatment of neoplastic diseases” (UNIVERSITÄT ZU KÖLN, priority 2013, dated 2020).
